{"source": "paper PMC9510668", "about": "(Frontiers in Pharmacology, 2022)", "key": {"[1]": {"experiment": "Effect of NaTC (bile salt) concentration on solubility", "type": "physicochemical", "conditions": "for solubility at 2 h: pH 5.5, read-out: Solubility at Fasted state", "procedure": "After incubation of 2 h, 1 ml aliquot of each sample was withdrawn from the tube. The samples were filtered using a 0.22 μm filter, the first 0.8 ml was discarded, and the remaining 0.2 ml was analyzed by the HPLC. The specific experiments containing different conditions are as follows: • i) Solubility testing in simulated fasted and fed media\nIn this experiment, a final pH of 5.5 was used, representing a mean front luminal pH at fed state."}, "[2]": {"test_system": "OCT2", "parameters": "method as in Sauzay et al., 2016", "conditions": "ref Sauzay et al., 2016; cited from earlier work"}, "[3]": {"conditions": "cited from earlier work; for Solubility: ref Herbrink et al., 2018; for LogP: 2022"}, "[4]": {"test_system": "P-gp", "parameters": "method as in Minocha et al., 2012; Boudou-Rouquette et al., 2016", "conditions": "in vitro; ref Minocha et al., 2012; Boudou-Rouquette et al., 2016; cited from earlier work"}, "[5]": {"test_system": "OCT1", "parameters": "method as in Ellawatty et al., 2018", "conditions": "ref Ellawatty et al., 2018; cited from earlier work"}, "[6]": {"conditions": "cited from earlier work"}, "[7]": {"conditions": "50 mg OD for 21 consecutive days, Day 1, ref Hurwitz et al., 2009"}, "[8]": {"conditions": "50 mg OD for 21 consecutive days, Day 22, ref Hurwitz et al., 2009"}, "[9]": {"conditions": "100 mg OD for 21 consecutive days, Day 1, ref Hurwitz et al., 2009"}, "[10]": {"conditions": "100 mg OD for 21 consecutive days, Day 22, ref Hurwitz et al., 2009"}, "[11]": {"conditions": "200 mg OD for 21 consecutive days, Day 1, ref Hurwitz et al., 2009"}, "[12]": {"conditions": "200 mg OD for 21 consecutive days, Day 22, ref Hurwitz et al., 2009"}, "[13]": {"conditions": "300 mg twice daily for 21 consecutive days, Day 1, ref Hurwitz et al., 2009"}, "[14]": {"conditions": "300 mg twice daily for 21 consecutive days, Day 22, ref Hurwitz et al., 2009"}, "[15]": {"conditions": "400 mg OD for 21 consecutive days, Day 1, ref Hurwitz et al., 2009"}, "[16]": {"conditions": "400 mg OD for 21 consecutive days, Day 22, ref Hurwitz et al., 2009"}, "[17]": {"conditions": "400 mg oral suspension, ref Heath et al., 2012"}, "[18]": {"conditions": "400 mg tablet, arithmetic mean (range), ref Deng et al., 2013"}, "[19]": {"conditions": "400 mg twice daily for 21 consecutive days, Day 1, ref Hurwitz et al., 2009"}}, "note": "Where two headings read alike, the source gives them in different places.", "data": [{"smiles": "Cc1ccc(Nc2nccc(N(C)c3ccc4c(C)n(C)nc4c3)n2)cc1S(N)(=O)=O", "note": "[PAZ, pazopanib]", "values": [{"measurement": "Increase of solubility with NaTC", "setting": "[1]; 15 mM compared with 30 mM NaTC", "result": "about 4 fold"}, {"measurement": "solubility at 2 h", "setting": "[1]; biorelevant medium with sodium taurocholate (NaTC), 37 °C, pH 5.5, fassgf or other biorelevant, thermodynamic from solid, NaTC 3.75 mM", "result": 1.51, "unit": "µg/mL"}, {"measurement": "solubility at 2 h", "setting": "[1]; biorelevant medium with sodium taurocholate (NaTC), 37 °C, pH 5.5, fassgf or other biorelevant, thermodynamic from solid, NaTC 15 mM", "result": 6.93, "unit": "µg/mL"}, {"measurement": "solubility at 2 h", "setting": "[1]; biorelevant medium with sodium taurocholate (NaTC), 37 °C, pH 5.5, fassgf or other biorelevant, thermodynamic from solid, NaTC 30 mM", "result": 27.9, "unit": "µg/mL"}, {"measurement": "solubility at 2 h", "setting": "[1]; biorelevant medium with sodium taurocholate (NaTC), pH 5.5, NaTC 7.5 mM", "result": 3.02, "unit": "µg/mL"}, {"measurement": "solubility at 2 h", "setting": "[1]; medium with 0 mM NaTC, 37 °C, pH 5.5, fassgf or other biorelevant, thermodynamic from solid, NaTC 0 mM", "result": 0.36, "unit": "µg/mL"}, {"measurement": "Ki", "setting": "[2]", "result": 3000, "unit": "nM"}, {"measurement": "Solubility", "setting": "[3]; above pH 4.0", "result": "practically insoluble"}, {"measurement": "Solubility", "setting": "[3]; pH = 1.0", "result": "very slight solubility"}, {"measurement": "Biopharmaceutics Classification System (BCS) class", "setting": "[3]; ref Evaluation, 1997", "result": "class II"}, {"measurement": "LogP", "setting": "[3]; ref Krens et al.", "result": 3.33}, {"measurement": "LogP", "setting": "[3]; ref PMDA", "result": 3.65}, {"measurement": "Substrate for efflux transporter P-gp", "setting": "[4]", "result": "weak substrate"}, {"measurement": "Km", "setting": "[5]", "result": 3.47, "unit": "µM"}, {"measurement": "OCT1 Vmax", "setting": "[5]", "result": 530, "unit": "pmol/min/mg protein"}, {"measurement": "AUC0-24, Observation", "setting": "[6]; [7]", "result": 51.8, "unit": "µg·h/mL"}, {"measurement": "Cmax, Observation", "setting": "[6]; [7]", "result": 3.3, "unit": "µg/mL"}, {"measurement": "Ctrough, Observation", "setting": "[6]; [7]", "result": 1500, "unit": "ng/mL"}, {"measurement": "Tmax, Observation", "setting": "[6]; [7]", "result": 3.0, "unit": "h"}, {"measurement": "AUC504-528, Observation", "setting": "[6]; [8]", "result": 157.7, "unit": "µg·h/mL"}, {"measurement": "Cmax, Observation", "setting": "[6]; [8]", "result": 8.4, "unit": "µg/mL"}, {"measurement": "Ctrough, Observation", "setting": "[6]; [8]", "result": 5100, "unit": "ng/mL"}, {"measurement": "Tmax, Observation", "setting": "[6]; [8]", "result": 3.0, "unit": "h"}, {"measurement": "AUC0-24, Observation", "setting": "[6]; [9]", "result": 96.9, "unit": "µg·h/mL"}, {"measurement": "Cmax, Observation", "setting": "[6]; [9]", "result": 6.5, "unit": "µg/mL"}, {"measurement": "Ctrough, Observation", "setting": "[6]; [9]", "result": 2800, "unit": "ng/mL"}, {"measurement": "Tmax, Observation", "setting": "[6]; [9]", "result": 4.0, "unit": "h"}, {"measurement": "AUC504-528, Observation", "setting": "[6]; [10]", "result": 160.7, "unit": "µg·h/mL"}, {"measurement": "Cmax, Observation", "setting": "[6]; [10]", "result": 11.0, "unit": "µg/mL"}, {"measurement": "Ctrough, Observation", "setting": "[6]; [10]", "result": 4900, "unit": "ng/mL"}, {"measurement": "Tmax, Observation", "setting": "[6]; [10]", "result": 8.0, "unit": "h"}, {"measurement": "AUC0-24, Observation", "setting": "[6]; [11]", "result": 104.5, "unit": "µg·h/mL"}, {"measurement": "Cmax, Observation", "setting": "[6]; [11]", "result": 7.5, "unit": "µg/mL"}, {"measurement": "Ctrough, Observation", "setting": "[6]; [11]", "result": 2900, "unit": "ng/mL"}, {"measurement": "Tmax, Observation", "setting": "[6]; [11]", "result": 3.0, "unit": "h"}, {"measurement": "AUC504-528, Observation", "setting": "[6]; [12]", "result": 384.8, "unit": "µg·h/mL"}, {"measurement": "Cmax, Observation", "setting": "[6]; [12]", "result": 23.7, "unit": "µg/mL"}, {"measurement": "Ctrough, Observation", "setting": "[6]; [12]", "result": 12400, "unit": "ng/mL"}, {"measurement": "Tmax, Observation", "setting": "[6]; [12]", "result": 2.0, "unit": "h"}, {"measurement": "AUC0-24, Observation", "setting": "[6]; [13]", "result": 120.1, "unit": "µg·h/mL"}, {"measurement": "Cmax, Observation", "setting": "[6]; [13]", "result": 8.4, "unit": "µg/mL"}, {"measurement": "Ctrough, Observation", "setting": "[6]; [13]", "result": 4100, "unit": "ng/mL"}, {"measurement": "Tmax, Observation", "setting": "[6]; [13]", "result": 4.0, "unit": "h"}, {"measurement": "Cmax, Observation", "setting": "[6]; [14]", "result": 36.7, "unit": "µg/mL"}, {"measurement": "Ctrough, Observation", "setting": "[6]; [14]", "result": 29500, "unit": "ng/mL"}, {"measurement": "Tmax, Observation", "setting": "[6]; [14]", "result": 4.0, "unit": "h"}, {"measurement": "AUC0-24, Observation", "setting": "[6]; [15]", "result": 142.8, "unit": "µg·h/mL"}, {"measurement": "Cmax, Observation", "setting": "[6]; [15]", "result": 10.3, "unit": "µg/mL"}, {"measurement": "Ctrough, Observation", "setting": "[6]; [15]", "result": 3900, "unit": "ng/mL"}, {"measurement": "Tmax, Observation", "setting": "[6]; [15]", "result": 4.0, "unit": "h"}, {"measurement": "AUC504-528, Observation", "setting": "[6]; [16]", "result": 447.1, "unit": "µg·h/mL"}, {"measurement": "Cmax, Observation", "setting": "[6]; [16]", "result": 21.8, "unit": "µg/mL"}, {"measurement": "Ctrough, Observation", "setting": "[6]; [16]", "result": 10400, "unit": "ng/mL"}, {"measurement": "Tmax, Observation", "setting": "[6]; [16]", "result": 3.0, "unit": "h"}, {"measurement": "AUC0-72, Observation", "setting": "[6]; [17]", "result": "471.1 (NC) μg h mL^−1"}, {"measurement": "C24, Observation", "setting": "[6]; [17]", "result": "7.8 (NC) μg mL^−1"}, {"measurement": "Cmax, Observation", "setting": "[6]; [17]", "result": "12.7 (NC) μg mL^−1"}, {"measurement": "Tmax, Observation", "setting": "[6]; [17]", "result": "2.7 (NC) h"}, {"measurement": "AUC0-72, Observation", "setting": "[6]; [18]", "result": "335.2 (259–582) μg h mL^−1"}, {"measurement": "Cmax, Observation", "setting": "[6]; [18]", "result": "10.8 (7.3–12.5) μg mL^−1"}, {"measurement": "Tmax, Observation", "setting": "[6]; [18]", "result": "8.0 (4.0–10.0) h"}, {"measurement": "C24, Observation", "setting": "[6]; 400 mg tablet, ref Deng et al., 2013", "result": "5.8 (NC) μg mL^−1"}, {"measurement": "AUC0-24, Observation", "setting": "[6]; [19]", "result": 365.4, "unit": "µg·h/mL"}, {"measurement": "Cmax, Observation", "setting": "[6]; [19]", "result": 6.5, "unit": "µg/mL"}, {"measurement": "Ctrough, Observation", "setting": "[6]; [19]", "result": 3300, "unit": "ng/mL"}, {"measurement": "Tmax, Observation", "setting": "[6]; [19]", "result": 3.0, "unit": "h"}, {"measurement": "Cmax, Observation", "setting": "[6]; 400 mg twice daily for 21 consecutive days, Day 22, ref Hurwitz et al., 2009", "result": 36.1, "unit": "µg/mL"}]}]}
